According to the supplement of paper PMC11208160:

Test: recombinant UMI read abundance after kanamycin selection (control-corrected) (log10(CPM+1)); higher = more efficient recombination; extreme values may be limits of the assay; sequences stand for … in AGTGCAGAGAAAATCGGCCAGTTTTCTCTGCCTGCAGTCCGCATGCCGTGGGACCCCTTGGGTTCTAACCTGTTGCCTAGATTTATGCAGCGGACTGCCTTTCTCCCAAAGTGATAAACCGG…AGGTTGGTTTCACT; site = the 11-nt donor
Experimental: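 Pooled E. coli donor-specificity screen for the IS621 bridge recombinase. Each library member carries a reprogrammed 11-nt donor and a full-length LE bridge RNA expressed in cis from the natural promoter, with a paired donor-binding loop (8-nt LDG + 4-nt RDG) and a target-binding loop fixed to T5. It is co-electroporated with a T5 target plasmid; recombinase is induced with 0.07 mM IPTG and recombinants are selected on kanamycin. UMIs are counted as CPM, averaged over two biological replicates and corrected by the unselected control. Molecule = full bridge RNA written as DNA, built from the T5 scaffold: LDG = donor specificity nt 1-8, RDG = reverse complement of nt 8-11.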
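Also: IS621 bridge recombinase in Escherichia coli cells against a fixed T5 target plasmid.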

Row | Sequence | recombinant UMI read abundance (log10)
1 | GCGCCCTCATGGACCGGTTTTCCCGGTAATCCGTATTTGGC (site TGAAGTCCTCT) | 0.0178
2 | TATTCGGCATGGACCGGTTTTCCCGGTAATCCGTATTTGGT (site TATTCGGCTAC) | 0
3 | GGTCCGACATGGACCGGTTTTCCCGGTAATCCGTATTTGTA (site GGTCCAACTTA) | 0.0275
4 | CCGGGGCCATGGACCGGTTTTCCCGGTAATCCGTATTTGGT (site CCGGGGCCTAC) | 0.0146
5 | GCAATTCCATGGACCGGTTTTCCCGGTAATCCGTATTTGAG (site GCAATTCCTCT) | 0.651
6 | GATCTCTCATGGACCGGTTTTCCCGGTAATCCGTATTTGAT (site GATCTCTCTAT) | 0.578
7 | GAGCTCACATGGACCGGTTTTCCCGGTAATCCGTATTTGAT (site GACCTCACTAT) | 0.584
8 | GGTAGTGCATGGACCGGTTTTCCCGGTAATCCGTATTTGCC (site GGTAGTGCTGG) | 1.61
9 | CGGCCCACATGGACCGGTTTTCCCGGTAATCCGTATTTGTG (site CGGCCCACTCA) | 0.024
10 | CCATCGCCATGGACCGGTTTTCCCGGTAATCCGTATTTGGA (site CCATCGCCTTC) | 0.0195
11 | GAGCTCACATGGACCGGTTTTCCCGGTAATCCGTATTTGAT (site AAGCTCACTAT) | 1.48
12 | ACAGTAACATGGACCGGTTTTCCCGGTAATCCGTATTTGCA (site ACAGTATCTTG) | 1.65
13 | ACGGTAGCATGGACCGGTTTTCCCGGTAATCCGTATTTGCA (site ACGGTAGCTTG) | 2.74
14 | CAAGTCACATGGACCGGTTTTCCCGGTAATCCGTATTTGGT (site CAAGTCACTCC) | 0.00397
15 | TCAGAGACATGGACCGGTTTTCCCGGTAATCCGTATTTGCG (site TCGGAGACTCG) | 0.836
16 | GGCCGCACATGGACCGGTTTTCCCGGTAATCCGTATTTGCA (site GGCCGCACTTG) | 1.77
17 | CTGACATCATGGACCGGTTTTCCCGGTAATCCGTATTTGCT (site CGGACATCTAG) | 0.00554
18 | ATTAGGCCATGGACCGGTTTTCCCGGTAATCCGTATTTGAC (site ATTAGGCCTGT) | 0

Row | Sequence | recombinant UMI read abundance (log10)
19 | CGTAAGACATGGACCGGTTTTCCCGGTAATCCGTATTTGAG (site CGTAAGACTCT) | 1.73
20 | TACGGAACATGGACCGGTTTTCCCGGTAATCCGTATTTGCA (site TACGGAACTTG) | 1.47
21 | GCCAGGCCATGGACCGGTTTTCCCGGTAATCCGTATTTGTA (site GCCACGCCTTA) | 0.00645
22 | TCCAATTCATGGACCGGTTTTCCCGGTAATCCGTATTTGCT (site TCCAATTCTTG) | 0
23 | ATTAGAACATGGACCGGTTTTCCCGGTAATCCGTATTTGAG (site ATTAGAACTCT) | 1.22
24 | AATGTAACATGGACCGGTTTTCCCGGTAATCCGTATTTGCC (site AATGTAACTAG) | 0
25 | GGCGATCCATGGACCGGTTTTCCCGGTAATCCGTATTTGAA (site GGCTATCCTTT) | 0.141
26 | CAAGCGTCATGGACCGGTTTTCCCGGTAATCCGTATTTGTG (site CAAGCGCCTCA) | 0.0275
27 | AGTTGTGCATGGACCGGTTTTCCCGGTAATCCGTATTTGAA (site AGTTGTGCTTT) | 0.535
28 | GAATGGCCATGGACCGGTTTTCCCGGTAATCCGTATTTGTA (site GAATGGCCTTG) | 0.00609
29 | TGTAAACCATGGACCGGTTTTCCCGGTAATCCGTATTTGAC (site TGTAAACCTGT) | 0
30 | GGATTATCATGGACCGGTTTTCCCGGTAATCCGTATTTGAT (site GGATTATCTAT) | 1.82
31 | CATTGCTCATGGACCGGTTTTCCCGGTAATCCGTATTTGAA (site CAGTGCTCTTT) | 0.351
32 | GACAAACCATGGACCGGTTTTCCCGGTAATCCGTATTTGCT (site GACAAACCTAT) | 0
33 | TCTTCCCCATGGACCGGTTTTCCCGGTAATCCGTATTTGTA (site TTTTCCCCTTA) | 0.00951
34 | TACTTGACATGGACCGGTTTTCCCGGTAATCCGTATTTGCT (site TACTTAACTAG) | 0
35 | ATCCAAGCATGGACCGGTTTTCCCGGTAATCCGTATTTGAG (site ATCCAGGCTCT) | 0.356
36 | GTAGTCGCATGGACCGGTTTTCCCGGTAATCCGTATTTGCT (site GTAGTCGCTGG) | 2.09
